Test results reported in patent US11819537B2, “Preventive or therapeutic method for inflammatory skin disease” (Osaka University, priority 2016, dated 2023).

What was measured:
[1] = tested on: TLR7/8 signals (THP-1 cells); experiment: IL-6 secretion from macrophage cells stimulated with R848 (Example 3); type: cell-based, human; conditions: for TLR7/8 signal suppression effects, MHP1 compared with hMHP4: 30.5 μM each; for TLR7/8 signal suppression effects, MHP1 compared with hMHP4 / increase in the amount of IL-6 secretion by R848: FIG. 6; for TLR7/8 signals / increase in the amount of IL-6 secretion by R848: R848 10 μg/ml; for TLR7/8 signals: conclusion from FIG. 6; for increase in the amount of IL-6 secretion by R848: peptide 30.5 μM, 24 hours, ELISA
Experimental: The influence of the RANKL peptide on the amount of proinflammatory cytokines (IL-6) secreted from macrophage cells by the stimulation of a TLR7/8 ligand (R848) was examined. The specific examination procedures were as follows.
THP-1 cells (human-derived macrophage cell line) were cultured in a DMEM medium (+4% FBS) containing MHP1 or hMHP4 (final concentration: 30.5 μM) and R848 (final concentration: 10 μg/ml) or a DMEM medium (+4% FBS) containing R848 (final concentration: 10 μg/ml) alone for 24 hours by a standard method. After culturing, the concentration of IL-6 in the medium was measured by the ELISA method.

[2] = tested on: psoriatic symptoms caused by the administration of imiquimod (IMQ); experiment: Imiquimod-induced psoriatic symptoms in mice, MHP4 hydrophilic petrolatum ointment (Example 8); type: in vivo; conditions: MHP4 hydrophilic petrolatum ointment 375 ng/15 mg per mouse applied every day; 5% imiquimod; BALB/c male mice; FIGS. 11 to 14
Experimental: Specifically, the following procedure was performed according to the dosing schedule shown in FIG. 1 except that the first application of an ointment was performed 6 hours after the first imiquimod application. In Example 1, the RANKL peptide aqueous solution was administered, while a RANKL peptide ointment was administered in this example. As test animals, BALB/c 9-week-old male mice whose back hair was partially removed were prepared. 5% imiquimod (IMQ) was applied to the hair-removed portion in the back and ear of each mouse (62.5 mg per mouse) (day 0 (0 d)). 6 hours later, (1) an MHP4 hydrophilic petrolatum ointment (375 ng (MHP4)/15 mg (hydrophilic petrolatum) per mouse, n=2), hydrophilic petrolatum (control (untreated), n=2), or MCT/BBP (Marduox (tradename) ointment) (15 mg per mouse, n=2) was individually applied to the back and ear. Thereafter, imiquimod and item (1) above were applied every day (from day 1 (1 d)). […] The degree of redness in the back, the degree of white scaling in the back, and the degree of skin thickening in the back were quantified according to the description in the document (van der Fits, L. et al. Imiquimod-induced psoriasis-like skin inflammation in mice is mediated via the IL-23/IL-17 axis. J. Immunol. 182, 5836-45 (2009) (evaluation criteria: none (0), mild (1), moderate (2), severe (3), and very severe (4)). FIGS. 12 to 14 show the results.

[3] = tested on: TLR7/8 signals (MG6 cells); experiment: Proinflammatory cytokine secretion from microglial cells stimulated with R848 (Example 2); type: cell-based, mouse; conditions: R848 1 μg/ml; for increase in the amount of IL-6 secretion by R848: MHP4 7.6, 15.3 or 30.5 μM, FIG. 5a, 5c; for TLR7/8 signals: conclusion from FIG. 5
Experimental: The influence of the RANKL peptide on the amount of proinflammatory cytokines (IL-6 and TFNα) secreted from microglial cells by the stimulation of imidazoquinoline resiquimod (R848 produced by Invitrogen), which is a TLR7/8 ligand, was examined. The specific examination procedures were as follows.
MG6 cells (mouse-derived microglial cell line) were cultured in a DMEM medium (+4% FBS) containing MHP1 or MHP4 (final concentration: 7.6, 15.3, or 30.5 μM) and R848 (final concentration: 1 μg/ml) or a DMEM medium (+4% FBS) containing R848 (final concentration: 1 μg/ml) alone for 24 hours by a standard method. After culturing, the concentrations of IL-6 and TNFα in the medium were measured by the ELISA method. In the Examples of the present application, the ELISA method was performed using a kit (Quantikine ELISA Mouse TNF-a or Quantikine ELISA Mouse IL-6, produced by R&D Systems).

[4] = tested on: NFATc1 and ACP5 mRNA; experiment: Osteoclast-related mRNA expression in RAW264.7 cells, real-time RT-PCR (Example 5); type: cell-based; conditions: MHP1 100 μg/ml, collected after 3 days, FIG. 8A, 8B
Experimental: (§1) It has recently been reported that the administration of RANKL protein to mice induces the activation of osteoclasts. Accordingly, the influence of the RANKL peptide on osteoclasts was examined. The specific examination procedures were as follows.
(§2) MHP1 (final concentration: 100 μg/ml) or RANKL protein (final concentration: 10 ng/ml) was added to a medium (DMEM medium (+4% FBS)) in which RAW264.7 cells were cultured, and the cells were collected after 10 minutes and 3 days.
(§3) For the samples collected after 10 minutes, nuclear proteins of the cells were extracted using the Nuclear Extract Kit (Active Motif), and the degree of NFκB (p65) activation was measured by the TransAM NFkB p65 Kit (Active Motif). On the other hand, for the samples collected after 3 days, the mRNA expression levels of NFATc1 and ACP5 were analyzed by real-time RT-PCR.

[5] = tested on: NFκB (p65); experiment: NFκB (p65) activation in RAW264.7 cells, TransAM NFkB p65 Kit (Example 5); type: cell-based; conditions: MHP1 100 μg/ml, collected after 10 minutes, FIG. 8C
Experimental: as §1, §2, §3

[6] = tested on: psoriatic symptoms caused by the administration of imiquimod (IMQ); experiment: Imiquimod-induced psoriatic symptoms in mice, MHP1 aqueous solution (Example 1); type: in vivo; conditions: MHP1 aqueous solution 200 μg/100 μL per mouse applied to back and ear every day; 5% imiquimod; BALB/c female mice; FIGS. 2 to 4
Experimental: As test animals, BALB/c 6-week-old female mice whose back hair was partially removed were prepared. 5% imiquimod (IMQ) was applied to the hair-removed portion in the back and ear of each mouse (62.5 mg per mouse) (day 0 (0 d)). One day later, (1) an MHP1 aqueous solution (200 μg/100 μL per mouse, n=2) or dH2O (control, n=2) was individually applied to the back and ear, followed by the application of (2) 5% imiquimod (IMQ) (62.5 mg per mouse (day 1 (1 d)). Thereafter, items (1) and (2) above were applied every day for 5 days (day 2 to 6 (2 d to 6 d)).
The degree of white scaling in the back was quantified in accordance with the description of the document (van der Fits, L. et al. Imiquimod-induced psoriasis-like skin inflammation in mice is mediated via the IL-23/IL-17 axis. J. Immunol. 182, 5836-45 (2009)) (evaluation criteria: none (0), mild (1), moderate (2), severe (3), and very severe (4)).
Additionally, the ear thickness was measured.

[7] = tested on: osteoclast precursor cells; experiment: Osteoclast differentiation, Osteoclast Culture Kit V-2, TRAP staining (Example 6); type: cell-based; conditions: 7 days
Experimental: Osteoclast Culture Kit V-2 (OSC33, produced by Cosmo Bio Co., Ltd.) was used. According to the manual of the kit, the culturing of osteoclast precursor cells was started in the presence of M-CSF (final concentration: 50 ng/ml) in the A and B groups, and in the presence of M-CSF (final concentration: 50 ng/ml) and MHP1 (final concentration: 30, 50, or 100 μg/ml) in the C and D groups. Thereafter, 24 hours to 7 days after the start of culturing, the A group was cultured in the presence of M-CSF (final concentration: 50 ng/ml), the B group was cultured in the presence of M-CSF (final concentration: 50 ng/ml) and RANKL protein (final concentration: 50 ng/ml), the C group was cultured in the presence of M-CSF (final concentration: 50 ng/ml) and MHP1 (final concentration: 30, 50, or 100 μg/ml), and the D group was cultured in the presence of M-CSF (final concentration: 50 ng/ml), RANKL protein (final concentration: 50 ng/ml), and MHP1 (final concentration: 30, 50, or 100 μg/ml). After culturing, the cells were subjected to TRAP staining and nuclear staining according to a standard method.

[8] = tested on: MG6 cells; experiment: Stability of RANKL peptide: cytokine secretion inhibition in LPS-stimulated MG6 cells after storage (Example 7); type: cell-based, mouse
Experimental: The stability of the RANKL peptide was examined. The specific examination procedures were as follows.
MHP1 was dissolved in water to a concentration of 2 mg/ml, and stored at 4° C. for 208 days. Thereafter, MG6 cells (mouse-derived microglial cell line) were cultured in a DMEM medium (+4% FBS) containing MHP1 (final concentration: 100 μg/ml) and LPS (final concentration: 2 ng/ml) for 24 hours by a standard method. After culturing, the concentrations of IL-6 and TNFα in the medium were measured by the ELISA method.

Sequence | TLR7/8 signal suppression effects, MHP1 compared with hMHP4 [1] | TLR7/8 signals [1] | increase in the amount of IL-6 secretion by R848 [1] | psoriasis symptoms (back photographs, degree of redness, white scaling, skin thickening) [2] | increase in the amount of IL-6 secretion by R848 ([3]; MHP1 30.5 μM, 24 hours, ELISA) | TLR7/8 signals [3] | expression of osteoclast-related mRNA (NFATc1, ACP5) [4] | NFκB (p65) activation [5] | increase in the amount of TNFα secretion by R848 ([3]; MHP1 30.5 μM, 24 hours, ELISA, FIG. 5b) | psoriatic symptoms (back photographs, degree of white scaling, ear thickness) [6] | differentiation of osteoclasts when MHP1 was added (without RANKL protein) ([7]; M-CSF 50 ng/ml and MHP1 30, 50 or 100 μg/ml, TRAP and nuclear staining, FIG. 9 (b)) | differentiation of osteoclasts promoted by RANKL ([7]; M-CSF 50 ng/ml, RANKL protein 50 ng/ml and MHP1 30, 50 or 100 μg/ml, TRAP staining, FIG. 9 (a)) | stability ([8]; 2 mg/ml in water, 4° C., 208 days) | proinflammatory cytokine (IL-6, TNFα) secretion-inhibiting effect after long-term storage ([8]; MHP1 2 mg/ml in water stored at 4° C. for 208 days, then 100 μg/ml with LPS 2 ng/ml, MG6 cells, 24 hours, FIG. 10)
LMVYVTKTSIKIPSS (listed as Homo sapiens) [hMHP4] | similar | suppressed the TLR7/8 signals | suppressed | – | – | – | – | – | – | – | – | – | – | –
LMVYVVKTSIKIPSS (listed as Mus musculus) [MHP4] | – | – | – | improved psoriasis symptoms | suppressed | suppressed the TLR7/8 signals | – | – | – | – | – | – | – | –
LMVYVVKTSIKIPSSHNLMKGGSTKNWSGN (listed as Mus musculus) [MHP1] | similar | suppressed the TLR7/8 signals | suppressed | – | suppressed | suppressed the TLR7/8 signals | did not promote | slightly activated | suppressed | improved psoriatic symptoms | did not occur | inhibited | high | in the same manner as MHP1 before storage
